This is an account of results in ChEMBL document CHEMBL4834423, “Discovery of AG-270, a First-in-Class Oral MAT2A Inhibitor for the Treatment of Tumors with Homozygous MTAP Deletion” (J Med Chem, 2021).

A value given as a limit tells only on which side of the number the result lay.

The target in one data set is T1, PXR (NR1I2) (Homo sapiens, UniProt O75469).
T1 sequence (O75469 whole entry): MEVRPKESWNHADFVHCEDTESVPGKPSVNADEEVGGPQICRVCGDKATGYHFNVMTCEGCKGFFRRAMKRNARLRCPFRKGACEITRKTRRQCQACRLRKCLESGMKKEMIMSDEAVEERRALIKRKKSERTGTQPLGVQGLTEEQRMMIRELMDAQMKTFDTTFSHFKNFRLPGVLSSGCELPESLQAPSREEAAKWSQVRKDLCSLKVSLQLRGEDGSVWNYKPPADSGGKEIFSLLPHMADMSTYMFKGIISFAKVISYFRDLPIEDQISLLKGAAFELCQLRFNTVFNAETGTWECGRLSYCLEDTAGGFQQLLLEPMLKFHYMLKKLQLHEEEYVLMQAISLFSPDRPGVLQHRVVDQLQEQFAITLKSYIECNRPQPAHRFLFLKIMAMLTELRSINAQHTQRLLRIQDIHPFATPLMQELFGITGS
The data set can be described thus: Transactivation of PXR in human HepG2 cells relative to rifampicin. The format is cell-based. The note with it: read-out: Activity.

Another data set deals with T2, Cytochrome P450 2B6 (Homo sapiens, UniProt P20813).
T2 sequence (P20813 whole entry): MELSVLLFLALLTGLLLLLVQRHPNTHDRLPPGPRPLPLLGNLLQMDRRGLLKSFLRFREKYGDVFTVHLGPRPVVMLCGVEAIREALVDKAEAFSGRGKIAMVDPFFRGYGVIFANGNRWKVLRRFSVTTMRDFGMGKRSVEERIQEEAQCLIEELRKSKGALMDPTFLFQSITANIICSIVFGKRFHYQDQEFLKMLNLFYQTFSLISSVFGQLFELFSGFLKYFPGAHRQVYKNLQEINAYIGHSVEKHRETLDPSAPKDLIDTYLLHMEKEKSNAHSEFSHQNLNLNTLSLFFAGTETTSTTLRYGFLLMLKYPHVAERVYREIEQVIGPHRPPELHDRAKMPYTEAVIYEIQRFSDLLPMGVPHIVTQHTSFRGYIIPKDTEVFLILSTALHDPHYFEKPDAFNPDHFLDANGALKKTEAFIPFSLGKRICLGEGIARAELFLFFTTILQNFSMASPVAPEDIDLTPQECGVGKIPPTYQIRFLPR
In words: Inhibition of CYP2B6 (unknown origin) assessed as inactivation relative to control. It counts as ADME.

In the next data set the test system is HCT-116. The data set can be described thus: Anticancer activity in MTAP-null human HCT116 cells xenografted mouse model assessed as tumor growth inhibition at 10 mg/kg, po qd treated for 38 days relative to control. It counts as functional. The note with it: HCT-116, po, 912 h, time 38 day, read-out: TGI.
A short description of data set [1]: Oral bioavailability in monkey at 5 mg/kg. It counts as ADME, organism-based, Macaca mulatta. The note with it: rhesus monkey, in vivo.
The nature of data set [2]: Oral bioavailability in rat at 5 mg/kg. It counts as ADME, organism-based. Particulars: in vivo.
The next data set concerns the target Cytochrome P450 3A4 (Homo sapiens, UniProt P08684). The data set can be described thus: Inhibition of CYP3A4 (unknown origin) assessed as inactivation relative to control. It counts as ADME.
The target of data set [3] is T3, UDP-glucuronosyltransferase 1A1 (Homo sapiens, UniProt P22309).
T3 sequence (P22309 whole entry): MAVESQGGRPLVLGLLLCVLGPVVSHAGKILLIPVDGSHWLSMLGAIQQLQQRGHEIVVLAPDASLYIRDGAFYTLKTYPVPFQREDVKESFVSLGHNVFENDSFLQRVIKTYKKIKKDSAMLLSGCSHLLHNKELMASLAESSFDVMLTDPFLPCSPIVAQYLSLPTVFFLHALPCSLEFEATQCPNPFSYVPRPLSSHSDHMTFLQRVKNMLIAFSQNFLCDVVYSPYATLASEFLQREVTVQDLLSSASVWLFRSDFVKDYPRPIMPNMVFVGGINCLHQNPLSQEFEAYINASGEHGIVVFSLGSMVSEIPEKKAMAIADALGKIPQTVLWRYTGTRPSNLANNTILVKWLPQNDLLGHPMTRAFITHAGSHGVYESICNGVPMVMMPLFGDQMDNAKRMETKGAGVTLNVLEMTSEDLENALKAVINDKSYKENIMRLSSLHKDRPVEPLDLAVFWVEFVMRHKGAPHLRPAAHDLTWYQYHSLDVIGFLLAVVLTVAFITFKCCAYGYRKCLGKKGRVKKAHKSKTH
In words: Inhibition of UGT1A1 (unknown origin). The format is ADME.

Sequence of Cytochrome P450 3A4 (P08684 whole entry): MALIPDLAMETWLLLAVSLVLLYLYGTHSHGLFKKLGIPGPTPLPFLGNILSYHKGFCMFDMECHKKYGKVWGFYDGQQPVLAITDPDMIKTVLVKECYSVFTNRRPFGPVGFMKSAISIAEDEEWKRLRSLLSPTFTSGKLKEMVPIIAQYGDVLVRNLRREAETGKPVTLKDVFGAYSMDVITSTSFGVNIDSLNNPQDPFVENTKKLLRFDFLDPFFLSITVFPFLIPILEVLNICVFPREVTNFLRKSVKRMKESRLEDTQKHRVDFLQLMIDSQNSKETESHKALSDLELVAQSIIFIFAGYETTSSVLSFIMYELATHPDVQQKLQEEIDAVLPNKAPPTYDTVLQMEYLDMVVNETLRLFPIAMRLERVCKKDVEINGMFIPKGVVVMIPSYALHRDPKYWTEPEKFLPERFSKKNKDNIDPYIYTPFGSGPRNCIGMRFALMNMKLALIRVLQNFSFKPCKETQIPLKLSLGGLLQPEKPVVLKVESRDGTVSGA

On to `COc1ccc(-c2c(Nc3ccccn3)[nH]c3c(C4=CCCCC4)c(-c4ccccc4)nn3c2=O)cc1`, for which the Emax on PXR (NR1I2) was found to be 22%. The INH on Cytochrome P450 2B6 was above 3.6 µM; on Cytochrome P450 3A4, above 50 µM. In addition, the inhibition in vivo at 10 mg/kg with HCT-116 came out at 75%. In addition, the bioavailability was found to be 31% in data set [1] and 92% in data set [2]. For the same compound, 1100 nM corresponded to half-maximal inhibition in data set [3] (IC50).
